The assay has as its system P388 leukemia ip, CD2F1 mice, survival T/C. Briefly: NCI In Vivo Anticancer Drug Screen. Data for tumor model P388 Leukemia (intraperitoneal) in CD2F1 (CDF1) mice. The following applies: endpoint: median survival time, higher = longer survival. The method in brief:
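Mice carrying the transplanted tumor received test compound or vehicle. Survival was recorded in each group, and the value is the treated-group measurement divided by that of the vehicle-treated control group.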

[1] abbreviates: dose: 60.0 mg/kg/injection, schedule: Q01DX005 (ip), vehicle: saline with Tween-80.
[2] abbreviates: dose: 240.0 mg/kg/injection, schedule: Q01DX005 (ip), vehicle: saline with Tween-80.
Where [3] appears, read: dose: 120.0 mg/kg/injection, schedule: Q01DX005 (ip), vehicle: saline with Tween-80.
The mark [4] stands for this setting: dose: 60.0 mg/kg/injection, schedule: Q01DX005 (ip), vehicle: Klucel (hydroxypropylcellulose) (HPC).
Setting [5] is: dose: 120.0 mg/kg/injection, schedule: Q01DX005 (ip), vehicle: Klucel (hydroxypropylcellulose) (HPC).
[6] abbreviates: dose: 240.0 mg/kg/injection, schedule: Q01DX005 (ip), vehicle: Klucel (hydroxypropylcellulose) (HPC).

The structures appear in SMILES notation. “And” between values parts separate entries of the source, which are not always exact repeats. Equal values may be shown once. Toxic doses and inconclusive results are not listed.

Consider `O=S(=O)(Nc1ncccn1)c1ccc(N=Cc2c3ccccc3nc3ccccc23)cc1`, for which the T/C by setting is: (dose: 12.5 mg/kg/injection, schedule: Q04DX002 (ip), vehicle: Klucel (hydroxypropylcellulose) (HPC)) 96 % of control; (dose: 25.0 mg/kg/injection, schedule: Q04DX002 (ip), vehicle: Klucel (hydroxypropylcellulose) (HPC)) 99 % of control; (dose: 50.0 mg/kg/injection, schedule: Q04DX002 (ip), vehicle: Klucel (hydroxypropylcellulose) (HPC)) 93 % of control; (dose: 100.0 mg/kg/injection, schedule: Q04DX002 (ip), vehicle: Klucel (hydroxypropylcellulose) (HPC)) 99 % of control; (dose: 200.0 mg/kg/injection, schedule: Q04DX002 (ip), vehicle: Klucel (hydroxypropylcellulose) (HPC)) 91 % of control; (dose: 400.0 mg/kg/injection, schedule: Q04DX002 (ip), vehicle: Klucel (hydroxypropylcellulose) (HPC)) 96 % of control.
Take `ClCCN(CCCl)CCNc1ccnc2cc(Cl)ccc12`: the T/C reads like this: (dose: 0.1 mg/kg/injection, schedule: Q01DX009 (ip), vehicle: saline) 104 % of control; (dose: 0.2 mg/kg/injection, schedule: Q01DX009 (ip), vehicle: saline) 90 % of control; (dose: 0.38 mg/kg/injection, schedule: Q01DX009 (ip), vehicle: saline) 114 % of control; (dose: 0.5 mg/kg/injection, schedule: Q01DX009 (ip), vehicle: saline sonified) 90 % of control; (dose: 0.58 mg/kg/injection, schedule: Q01DX009 (ip), vehicle: saline) 114 % of control; (dose: 0.88 mg/kg/injection, schedule: Q04DX003 (ip), vehicle: saline) 118 % of control. The T/C runs as follows: (dose: 1.0 mg/kg/injection, schedule: Q01DX009 (ip), vehicle: saline sonified) 118 % of control; (dose: 2.0 mg/kg/injection, schedule: Q04DX003 (ip), vehicle: saline) 118 % of control; (dose: 4.4 mg/kg/injection, schedule: Q01DX009 (ip), vehicle: saline) 166 % of control.
As to `C/C=C(/C)C(=O)OC1CC(C)=C2C(=O)C=C(C)C2C2OC(=O)C(C)(OC(=O)/C(C)=C\C)C12` (stereo not given), the T/C by setting is: (dose: 4.0 mg/kg/injection, schedule: Q01DX009 (ip), vehicle: Klucel (hydroxypropylcellulose) (HPC)) 102 % of control; (dose: 8.0 mg/kg/injection, schedule: Q01DX009 (ip), vehicle: Klucel (hydroxypropylcellulose) (HPC)) 102 % of control; (dose: 16.0 mg/kg/injection, schedule: Q01DX009 (ip), vehicle: Klucel (hydroxypropylcellulose) (HPC)) 96 % of control; (dose: 32.0 mg/kg/injection, schedule: Q01DX009 (ip), vehicle: Klucel (hydroxypropylcellulose) (HPC)) 93 % of control.
For `CN1c2ccccc2SC2C(c3ccccc3)=NOC21` (stereo not given), the T/C by setting is: (dose: 3.75 mg/kg/injection, schedule: Q01DX005 (ip), vehicle: saline with Tween-80) 98 % of control; (dose: 7.5 mg/kg/injection, schedule: Q01DX005 (ip), vehicle: saline with Tween-80) 93 % of control; (dose: 15.0 mg/kg/injection, schedule: Q01DX005 (ip), vehicle: saline with Tween-80) 90 % of control; (dose: 30.0 mg/kg/injection, schedule: Q01DX005 (ip), vehicle: saline with Tween-80) 88 % of control; under setting [1], 86 % of control; under setting [2], 89 % of control.
`N#CN(Cc1ccccc1)C(c1ccccc1)(c1ccccc1)c1ccccc1.[Br][Sn]([c]1ccccc1)([c]1ccccc1)[c]1ccccc1`: the T/C was 98 % of control (dose: 1.5 mg/kg/injection, schedule: Q01DX005 (ip), vehicle: saline with Tween-80); 100 % of control (dose: 3.0 mg/kg/injection, schedule: Q01DX005 (ip), vehicle: saline with Tween-80); 101 % of control (dose: 6.0 mg/kg/injection, schedule: Q01DX005 (ip), vehicle: saline with Tween-80); 94 % of control (dose: 6.25 mg/kg/injection, schedule: Q01DX005 (ip), vehicle: saline with Tween-80).
Consider `CCN1CCCC(Nc2cc(C)nc(/N=C(/N)Nc3ccc(Cl)c(Cl)c3)n2)C1` (stereo not given), for which the T/C reads like this: (dose: 3.13 mg/kg/injection, schedule: Q01DX009 (ip), vehicle: water) 93 % of control; (dose: 6.25 mg/kg/injection, schedule: Q01DX009 (ip), vehicle: water) 97 % of control; (dose: 12.5 mg/kg/injection, schedule: Q01DX009 (ip), vehicle: water) 107 % of control and 97 % of control; (dose: 25.0 mg/kg/injection, schedule: Q01DX009 (ip), vehicle: water) 101 % of control.
For `CC(=O)Nc1ccc(CC#N)cc1`, the T/C (dose: 5.0 mg/kg/injection, schedule: Q01DX009 (ip), vehicle: saline sonified) was 100 % of control; the T/C (dose: 10.0 mg/kg/injection, schedule: Q01DX009 (ip), vehicle: saline sonified) was 100 % of control; the T/C (dose: 20.0 mg/kg/injection, schedule: Q01DX009 (ip), vehicle: saline sonified) is 113 % of control.
For `COc1c(C)[nH]ccc1=O`, the T/C (dose: 12.5 mg/kg/injection, schedule: Q01DX009 (ip), vehicle: saline) was 102 % of control and 105 % of control; the T/C (dose: 25.0 mg/kg/injection, schedule: Q01DX009 (ip), vehicle: saline) was 101 % of control and 103 % of control; the T/C (dose: 50.0 mg/kg/injection, schedule: Q01DX009 (ip), vehicle: saline) was 99 % of control and 102 % of control; the T/C (dose: 100.0 mg/kg/injection, schedule: Q01DX009 (ip), vehicle: saline) is 99 % of control and 105 % of control; the T/C (dose: 200.0 mg/kg/injection, schedule: Q01DX009 (ip), vehicle: saline) is 104 % of control and 107 % of control; the T/C (dose: 400.0 mg/kg/injection, schedule: Q01DX009 (ip), vehicle: saline) was 104 % of control and 106 % of control.
For `COC(=O)C12C3C4C1C1C2C3C41C(=O)OC` (stereo not given), the T/C is 102 % of control under setting [1], 102 % of control under setting [3] and 102 % of control under setting [2].
Consider `COC(=O)C1C(c2ccccc2)C1(C#N)C#N` (stereo not given), for which the T/C reads like this: under setting [4], 96 % of control; under setting [5], 106 % of control; under setting [6], 98 % of control.
As to `COc1ccc(C(O)(C2CC2)C2CC2)cc1`, the T/C reads like this: (dose: 100.0 mg/kg/injection, schedule: Q01DX001 (ip), vehicle: Klucel (hydroxypropylcellulose) (HPC)) 98 % of control; (dose: 200.0 mg/kg/injection, schedule: Q01DX001 (ip), vehicle: Klucel (hydroxypropylcellulose) (HPC)) 94 % of control; (dose: 400.0 mg/kg/injection, schedule: Q01DX001 (ip), vehicle: Klucel (hydroxypropylcellulose) (HPC)) 98 % of control.
With `Cn1c(=O)c2ccccc2c2ccccc21`, the T/C runs as follows: (dose: 50.0 mg/kg/injection, schedule: Q01DX009 (ip), vehicle: saline with Tween-80) 96 % of control; (dose: 100.0 mg/kg/injection, schedule: Q01DX009 (ip), vehicle: saline with Tween-80) 96 % of control; (dose: 200.0 mg/kg/injection, schedule: Q01DX009 (ip), vehicle: saline with Tween-80) 95 % of control; (dose: 400.0 mg/kg/injection, schedule: Q01DX009 (ip), vehicle: saline with Tween-80) 99 % of control.
On to `CCn1c(=O)cc2n(C)c3ccccc3n2c1=O`, for which the T/C reads like this: under setting [1], 98 % of control; under setting [3], 94 % of control; under setting [2], 92 % of control.
For the compound `NS(=O)(=O)Oc1ccc(Cl)cc1C(=O)Oc1ccc(Cl)cc1`, the T/C under setting [4] was 91 % of control, the T/C under setting [5] was 91 % of control and the T/C under setting [6] is 88 % of control.
Regarding `CN1NC(C2NN(C)C(=O)N(C)N2)NN(C)C1=O`, the T/C by setting is: (dose: 50.0 mg/kg/injection, schedule: Q01DX005 (ip), vehicle: saline) 102 % of control; (dose: 100.0 mg/kg/injection, schedule: Q01DX005 (ip), vehicle: saline) 102 % of control; (dose: 200.0 mg/kg/injection, schedule: Q01DX005 (ip), vehicle: saline) 107 % of control.
Turning to `Cc1ccc(N/N=C/C(=O)O)cc1`, the T/C is, setting by setting: (dose: 12.5 mg/kg/injection, schedule: Q01DX009 (ip), vehicle: other) 113 % of control; (dose: 25.0 mg/kg/injection, schedule: Q01DX009 (ip), vehicle: other) 103 % of control; (dose: 50.0 mg/kg/injection, schedule: Q01DX009 (ip), vehicle: other) 112 % of control; (dose: 100.0 mg/kg/injection, schedule: Q01DX009 (ip), vehicle: other) 98 % of control; (dose: 200.0 mg/kg/injection, schedule: Q01DX009 (ip), vehicle: other) 116 % of control; (dose: 400.0 mg/kg/injection, schedule: Q01DX009 (ip), vehicle: other) 116 % of control.

(Values after PubChem BioAssay AID330 (DTP/NCI, 2004).)
